Drawing on patent US6063804A, “Pyrrole compounds” (Adir et Compagnie, priority 1997, dated 2000), this text covers IC50 and ED50 for 6 molecules.

Read-outs that look alike come from different tables or passages of the source.

The subject of assay [1] is IL1β production by THP1 line cells. As to the kind of experiment: Inhibition of production of IL1β by THP1 line cells stimulated with LPS. The format is cell-based. The conditions noted are these: Homo sapiens, THP-1.
Assay [2] deals with T1, cyclooxygenase 1 (COX 1) (Mus musculus, UniProt P22437).
T1 construct: using mice peritoneal macrophages exposed to inflammatory stimuli (zymosan and LPS, respectively); endogenous in cells; host or cells: mouse peritoneal macrophages exposed to zymosan
T1 sequence (P22437 27-602): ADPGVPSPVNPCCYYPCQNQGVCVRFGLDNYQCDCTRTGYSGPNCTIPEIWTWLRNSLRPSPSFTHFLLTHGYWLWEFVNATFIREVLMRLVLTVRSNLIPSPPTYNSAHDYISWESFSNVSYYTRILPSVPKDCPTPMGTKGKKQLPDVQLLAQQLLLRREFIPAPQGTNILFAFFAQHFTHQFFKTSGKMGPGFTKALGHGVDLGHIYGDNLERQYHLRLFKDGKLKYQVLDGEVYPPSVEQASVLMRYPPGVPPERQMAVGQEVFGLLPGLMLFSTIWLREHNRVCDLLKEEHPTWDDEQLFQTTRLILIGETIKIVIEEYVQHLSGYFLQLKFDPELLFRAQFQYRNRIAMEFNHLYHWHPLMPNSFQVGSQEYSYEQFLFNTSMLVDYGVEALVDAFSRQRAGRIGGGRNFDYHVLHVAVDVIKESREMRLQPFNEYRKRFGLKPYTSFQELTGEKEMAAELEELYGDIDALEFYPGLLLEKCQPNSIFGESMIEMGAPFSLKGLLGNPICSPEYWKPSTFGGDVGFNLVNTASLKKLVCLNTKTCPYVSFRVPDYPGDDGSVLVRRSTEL
Kind of assay: Inhibitory activity in relation to COX 1 in peritoneal macrophages exposed to zymosan. The format is cell-based. The conditions noted are these: mice peritoneal macrophages. The method, then: (§1) The inhibitory activities of the compounds in relation to COX 1 and COX 2 were evaluated using mice peritoneal macrophages exposed to inflammatory stimuli (zymosan and LPS, respectively) in accordance with the method described by Tordjman el al., Biochimica et Biophysica Acta, 1995, 1256, 249-56.

Assay [3] deals with T2, cyclooxygenase 2 (COX 2) (Mus musculus, UniProt Q05769).
T2 construct: using mice peritoneal macrophages exposed to inflammatory stimuli (zymosan and LPS, respectively); endogenous in cells; host or cells: mouse peritoneal macrophages exposed to LPS
T2 sequence (Q05769 18-604): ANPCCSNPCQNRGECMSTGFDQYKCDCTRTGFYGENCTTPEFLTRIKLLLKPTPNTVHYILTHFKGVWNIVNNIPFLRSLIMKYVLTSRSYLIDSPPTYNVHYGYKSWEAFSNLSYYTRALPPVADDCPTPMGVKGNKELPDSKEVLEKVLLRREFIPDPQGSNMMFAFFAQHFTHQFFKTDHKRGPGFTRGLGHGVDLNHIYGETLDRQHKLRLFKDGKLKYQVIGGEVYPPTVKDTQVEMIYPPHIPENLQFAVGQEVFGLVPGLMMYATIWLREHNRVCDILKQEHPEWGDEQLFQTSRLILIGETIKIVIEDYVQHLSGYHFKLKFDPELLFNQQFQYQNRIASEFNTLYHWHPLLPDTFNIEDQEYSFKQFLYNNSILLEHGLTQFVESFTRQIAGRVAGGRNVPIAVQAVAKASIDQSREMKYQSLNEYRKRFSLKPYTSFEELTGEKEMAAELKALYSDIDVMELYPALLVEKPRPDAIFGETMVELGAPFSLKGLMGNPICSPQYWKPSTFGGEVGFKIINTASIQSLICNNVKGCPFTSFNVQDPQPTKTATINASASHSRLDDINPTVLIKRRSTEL
As to the kind of experiment: Inhibitory activity in relation to COX 2 in peritoneal macrophages exposed to LPS. The format is cell-based. The procedure: as §1

Assay [4] relates to production of prostaglandins. Kind of assay: Inhibition of prostaglandin production in the carrageenin air-pouch model. The conditions noted are these: oral, mouse. In kind it is in vivo. The source says: In addition, those compounds exert an activity in animals especially by inhibiting the production of prostaglandins in the carrageenin air-pouch model in the mouse (Whittle, B. J. R. et al., Nature, 1980, 284, 271-273; Masferrer, J. L. el al., Proc. Natl. Acad. Sci. USA, 1994, 91, 3228-3232).

Assay [5] concerns NO production in mouse peritoneal macrophages. Kind of assay: Inhibition of NO production in peritoneal macrophages stimulated with LPS. In kind it is cell-based. The conditions noted are these: Peritoneal macrophage.

One may read the IC50 as the concentration at which inhibition is half-maximal. Molecule `CC1Cc2c(-c3ccccc3)[nH]c(-c3ccccc3)c2CC1C` (stereo not shown) [Example 9, 1,3-diphenyl-5,6-dimethyl-4,5,6,7-tetrahydro-2H-isoindole] came in with an IC50 in assay [1] of about 1000 nM.

In the case of `C1=CCc2c(-c3ccccc3)[nH]c(-c3ccccc3)c2C1` [Example 5, 1,3-diphenyl-4,7-dihydro-2H-isoindole], half-maximal inhibition in assay [2] (IC50) required 100 nM.

Regarding `Fc1ccc(-c2[nH]c(-c3ccc(F)cc3)c3c2CCCC3)cc1` [Example 1, 1,3-di-(4-fluorophenyl)-4,5,6,7-tetrahydro-2H-isoindole], the IC50 in assay [2] was 100 to 500 nM; in assay [3] (mice peritoneal macrophages, read-out: IC50 cox 2), 1 nM.

For `c1ccc(-c2[nH]c(-c3ccccc3)c3c2CCC3)cc1` [Example 4, 1,3-diphenyl-2,4,5,6-tetrahydrocyclopenta[c]pyrrole], in assay [2], the IC50 lay within 100 to 500 nM.

Usually ED50 stands for the dose that gives a 50% effect, or the effect in half of the subjects. The low end stands for greater potency, the high end for weaker potency. Regarding `Fc1ccc(-c2[nH]c(-c3ccc(F)cc3)c3c2C2CCC3C2)cc1` [Example 19, 1,3-di-(4-fluorophenyl)-4,7-methano-4,5,6,7-tetrahydro-2H-isoindole], the ED50 in assay [4] is 2.5 mg/kg. In addition, the IC50 was 2500 nM in assay [5] and 100 nM in assay [2].

As to `c1ccc(-c2[nH]c(-c3ccccc3)c3c2CCCC3)cc1` [Example 2, 1,3-diphenyl-4,5,6,7-tetrahydro-2H-isoindole], the IC50 was 100 to 500 nM in assay [2] and 1 nM in assay [3] (read-out: IC50 cox 2, mice peritoneal macrophages).
